Earlier results, collected in US20150065582A1, “Orally Dissolving Formulations of Memantine” (Forest Laboratories Holdings Limited, priority 2006, published 2015).
Where a name gives a salt, the structure may show the parent alone.

What was measured:
[1] = oral administration of immediate release tablets

solubility (classification) | absolute bioavailability [1] | SMILES
highly soluble |  | CC12CC3CC(C)(C1)CC(N)(C3)C2 [Memantine HCl]
 | approximately 100% | CC12CC3CC(C)(C1)CC(N)(C3)C2 [memantine, 1-amino-3,5-dimethyl adamantane]
